{"source": "patent US12708515B2", "about": "“Valved devices, treatments and methods to restore tissue elastic recoil” (priority 2021, dated 2026)", "origin": "cited, not measured here", "key": {"E. coli": {"tested_on": "E. coli", "settings": "cysteine terminated peptide; second value of the pair"}, "E. coli and E. faecalis": {"tested_on": "E. coli and E. faecalis", "settings": "physiologically relevant conditions"}}, "data": [{"substance": "LasioglossinIII", "values": [{"measurement": "anti-biofilm", "setting": "E. coli", "result": "40% (anti-biofilm)"}, {"measurement": "antimicrobial activity of coated catheters", "setting": "E. coli and E. faecalis", "result": "potent antimicrobial activity"}]}]}
